The text below walks through data of US20190105367A1, “ANTIMICROBIAL 4-OXOQUINOLIZINES” (Emergent Product Development Gaithersburg Inc., priority 2011, published 2019).

In experiment [1] the test system is GN52 Acinetobacter baumannii levofloxacin resistant clinical isolate. Briefly: Chequerboard synergy with polymyxin B, FICI (Example 6). It counts as cell-based. The text has this:
(§1) A chequerboard technique was used to identify possible synergistic or antagonistic interactions between the 4-oxoquinolizines compounds, levofloxacin and polymyxin B. Levofloxacin was included as a control. […] Final dilutions were made in Mueller-Hinton broth, the specific test medium used for MIC determinations according to CLSI guidelines (CLSI. Methods for Dilution Antimicrobial Susceptibility Tests for Bacteria That Grow Aerobically; Approved Standard-Eighth Edition (2009). CLSI Document M07-A8. CLSI, Wayne, Pa. 19087-1898, USA.). The test medium used was a cation-adjusted Mueller-Hinton Broth II (Becton Dickinson UK Ltd., Oxford Science Park, Oxford, UK, OX4 4DQ).
(§2) The compounds 2, 33 and 35, as well as levofloxacin were tested in combination with polymyxin B on the following isolates: GN31 Acinetobacter baumannii—antibiotic susceptible clinical isolate, GN52 Acinetobacter baumannii—levofloxacin resistant clinical isolate, GN56 Acinetobacter baumannii—levofloxacin resistant clinical isolate, GN48 Klebsiella pneumoniae—NCTC 13443—NDM-1-metallo-β-lactamase and GN10 Pseudomonas aeruginosa—ATCC 27853—antibiotic susceptible reference isolate. All isolates are from the collection maintained at Quotient Bioresearch Ltd., Cambridge, UK.
(§3) The MIC values for the compounds and polymyxin B and levofloxacin were determined by broth microdilution following CLSI guidelines, and the MICs of agents in combination were determined as described by Pillai et. al (Pillai S K, Moellering R C Jr, Eliopoulis G M; Antimicrobial Combinations in Antibiotics in Laboratory Medicine 5th Edition (V. Lorian Ed) (2005) p 365-440). Initial MIC results were used to determine the microtiter plate patterns for the chequerboards. A suitable doubling dilution concentration range was selected such that the combination antibiotic range was at least two concentrations above and four concentrations below the MIC for each isolate. A fixed range of 0.008 to 8 mg/L was tested for polymyxin B except in the case of A. baumannii GN31 where a range of 0.004 to 4 mg/L was tested when in combination with the compounds 2, 33 and 35 as well as levofloxacin.
(§4) From the raw data, fractional inhibitory concentration indices (FICI) were determined for the compounds of the invention and levofloxacin together with polymyxin B for each isolate as follows:
(§5) FICX=concentration of the combination antibiotic in a particular row MIC of the combination drug alone
(§6) FICY=MIC of polymyxin B in combination[…]MIC of the polymyxin B alone
(§7) Additionally isobolograms were created to represent the same data visually. Here, the MIC of polymyxin B was plotted against every concentration of the combination antibiotic up to the MIC.

For experiment [2], the system named is GN56 Acinetobacter baumannii levofloxacin resistant clinical isolate. The description is as above. It is filed as cell-based.
Excerpt: as §1, §2, §3, §4, §5, §6, §7

The mark [3] stands for this setting: in combination with polymyxin B.
Where [4] appears, read: polymyxin B with the named antibiotic.

On to `Cc1c(-c2ccc(N)nc2)ccn2c(=O)c(C(=O)O)cc(C3CC3)c12` [Compound 33, 8-(6-amino-3-pyridyl)-1-cyclopropyl-9-methyl-4-oxo-quinolizine-3-carboxylic acid], for which the “Combination drug MIC alone” value is 4 µg/mL in experiment [1] and 32 µg/mL in experiment [2]. The FICx in experiment [1] is reported as 0.25; in experiment [2], 0.06. For the same compound, the FICy in experiment [1] and in experiment [2] was 0.24 throughout. For the same compound, the results for the FICI in experiment [1] (combination with polymyxin B) and in experiment [2] (combination with polymyxin B) were 0.49 and 0.30, respectively. For the same compound, the Synergy entry in experiment [1] (combination with polymyxin B) and in experiment [2] (combination with polymyxin B) was “Synergy (Synergy (FICI <0.5))” in each case. The “Combination drug concentration in combination” value came to 1 mg/L in experiment [1] (setting [3]) and 2 mg/L in experiment [2] (setting [3]). The “Polymyxin B MIC in combination” value in experiment [1] (setting [4]) and in experiment [2] (setting [4]) was 0.12 µg/mL in each case.
